# Source: patent publication US20030166007A1, “Chemical proteomics” (MDS Proteomics Inc., priority 2002, published 2003)
# Entries after “also recorded” stand apart in the source; their conditions may differ.
# What was measured:
# [1] = target: T1, Pterin-4-alpha-carbinolamine dehydrogenase (PCD) (Homo sapiens, UniProt P61457); experiment: MTX-agarose affinity chromatography of cell lysate, MS identification; format: binding; details: HEK 293 lysate
# T1 construct: endogenous in cells; host or cells: HEK 293
# T1 sequence (P61457 1-104): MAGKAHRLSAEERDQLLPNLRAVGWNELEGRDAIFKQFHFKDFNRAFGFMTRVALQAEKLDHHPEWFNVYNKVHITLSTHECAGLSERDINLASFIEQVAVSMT
# Method: (§1) After incubation for 30 minutes at 4° C. with shaking, the lysates were clarified by centrifugation (27,000×g). In some experiments, cells were lysed using 20 strokes of a Dounce® homogenizer in the absence of detergents. […] While optimizing the protocol, however, several experimental variations were tested on cell lysates including concentration by ammonium sulfate precipitation, or removal of nucleic acid with Streptomycin sulfate. In such cases, the protein sample was desalted using a PD 10 protein-desalting column (Pharmacia), which had been pre-equilibrated in the same buffer (10 mM potassium phosphate pH 7.5)
# (§2) Affinity Chromatography: The desalted lysate was loaded onto a column of pre-equilibrated MTX-agarose (Sigma, 50 μL bed volume) or sepharose 4B agarose as a negative control. The lysates were allowed to slowly flow through the matrix under gravity flow. […] Retentates from the microcons were then loaded onto SDS-PAGE 4%-15% gradient mini gels (Bio-Rad). […]
# (§3) The peptides were then separated by reverse phase chromatography on C18 resin and directly injected into a mass spectrometer using an automated sample-loading device from 96 well plates. […] The spectra generated were analyzed on a custom-built multi-node server platform (RADARS, ProteoMetrics), which uses two database searching programs, Sonar (ProteoMetrics) and Mascot (Matrix Sciences). […]
# Pyridoxal Kinase = target: T2, Pyridoxal Kinase (Homo sapiens, UniProt O00764); experiment: as above; format: binding; details: HEK 293 lysate
# T2 construct: endogenous in cells; host or cells: HEK 293
# T2 sequence (O00764 1-312): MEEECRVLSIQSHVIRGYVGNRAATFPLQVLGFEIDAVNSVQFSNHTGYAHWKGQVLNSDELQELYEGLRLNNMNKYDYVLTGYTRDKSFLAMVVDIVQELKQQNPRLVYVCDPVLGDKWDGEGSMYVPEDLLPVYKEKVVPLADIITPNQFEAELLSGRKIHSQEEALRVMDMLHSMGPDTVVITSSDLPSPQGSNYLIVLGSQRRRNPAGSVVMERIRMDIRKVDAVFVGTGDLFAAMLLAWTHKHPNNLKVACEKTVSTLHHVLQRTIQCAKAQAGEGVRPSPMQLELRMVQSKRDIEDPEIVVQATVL
# Method: as §1, §2, §3
# [2] = target: T3, muscle glycogen phosphorylase b (Homo sapiens, UniProt P11217); details: cited from earlier work
# T3 sequence (P11217 1-842): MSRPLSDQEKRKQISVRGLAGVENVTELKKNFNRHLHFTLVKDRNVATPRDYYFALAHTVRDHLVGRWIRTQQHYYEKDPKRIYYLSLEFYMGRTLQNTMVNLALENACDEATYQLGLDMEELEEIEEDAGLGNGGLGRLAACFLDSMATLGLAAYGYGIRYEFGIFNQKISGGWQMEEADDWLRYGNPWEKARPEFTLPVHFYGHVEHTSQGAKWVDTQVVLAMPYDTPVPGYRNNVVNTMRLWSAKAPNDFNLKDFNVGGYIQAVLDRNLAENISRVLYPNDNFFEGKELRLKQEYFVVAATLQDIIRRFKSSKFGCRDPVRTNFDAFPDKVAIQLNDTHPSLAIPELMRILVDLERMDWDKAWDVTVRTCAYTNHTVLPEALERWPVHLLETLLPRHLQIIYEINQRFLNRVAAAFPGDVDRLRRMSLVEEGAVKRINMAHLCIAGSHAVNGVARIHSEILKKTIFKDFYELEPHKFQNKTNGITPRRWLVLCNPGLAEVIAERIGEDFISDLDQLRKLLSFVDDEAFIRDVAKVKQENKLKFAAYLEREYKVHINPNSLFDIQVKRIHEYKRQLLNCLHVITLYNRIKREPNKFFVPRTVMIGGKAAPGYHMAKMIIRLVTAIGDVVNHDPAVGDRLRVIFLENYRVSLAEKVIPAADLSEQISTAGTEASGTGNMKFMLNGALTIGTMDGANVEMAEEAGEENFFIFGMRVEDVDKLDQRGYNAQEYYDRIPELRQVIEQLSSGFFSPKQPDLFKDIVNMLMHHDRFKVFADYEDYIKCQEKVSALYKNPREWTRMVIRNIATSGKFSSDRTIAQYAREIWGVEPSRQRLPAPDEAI
# AIR carboxylase = target: T4, AIR carboxylase (Homo sapiens, UniProt P22234); experiment: MTX-agarose affinity chromatography of cell lysate, MS identification; format: binding; details: HEK 293 lysate
# T4 construct: endogenous in cells; host or cells: HEK 293
# T4 sequence (P22234 1-425): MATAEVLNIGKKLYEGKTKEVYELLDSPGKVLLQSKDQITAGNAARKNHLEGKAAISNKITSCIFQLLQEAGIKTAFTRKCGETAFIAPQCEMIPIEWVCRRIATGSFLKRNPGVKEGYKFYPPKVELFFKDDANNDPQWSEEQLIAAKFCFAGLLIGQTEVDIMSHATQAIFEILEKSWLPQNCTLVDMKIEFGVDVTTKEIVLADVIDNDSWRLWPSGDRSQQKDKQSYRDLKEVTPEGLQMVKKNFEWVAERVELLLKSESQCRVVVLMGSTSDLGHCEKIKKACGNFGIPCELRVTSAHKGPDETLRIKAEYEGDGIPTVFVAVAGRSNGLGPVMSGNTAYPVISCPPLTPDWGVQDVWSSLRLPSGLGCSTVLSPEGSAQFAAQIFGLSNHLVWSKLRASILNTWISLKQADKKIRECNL
# Method: as §1, §2, §3
# SAICAR synthetase = target: T5, SAICAR synthetase (Homo sapiens, UniProt P22234); experiment: as above; format: binding; details: HEK 293 lysate; bifunctional enzyme with AIR carboxylase
# T5 construct: endogenous in cells; host or cells: HEK 293
# T5 sequence (P22234 1-425): T4 sequence (P22234 1-425)
# Method: as §1, §2, §3
# [3] = tested on: Inosine monophosphate dehydrogenase; experiment: as above; format: binding, human; details: HEK 293 lysate
# Method: as §1, §2, §3
# HPRT = target: T6, HPRT (Homo sapiens, UniProt P00492); details: cited from earlier work
# T6 sequence (P00492 1-218): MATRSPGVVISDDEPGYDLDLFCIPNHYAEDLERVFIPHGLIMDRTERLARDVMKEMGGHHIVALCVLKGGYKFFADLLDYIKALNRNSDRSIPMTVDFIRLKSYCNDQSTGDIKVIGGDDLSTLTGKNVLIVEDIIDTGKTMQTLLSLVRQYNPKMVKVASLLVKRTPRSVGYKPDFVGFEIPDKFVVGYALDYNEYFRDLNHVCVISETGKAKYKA
# Glycogen Phosphorylase = experiment: MTX-agarose affinity chromatography of cell lysate, MS identification; format: binding, human; details: HEK 293 lysate
# Method: as §1, §2, §3
# [4] = target: T7, Divalent Cation tolerant protein CUTA (Homo sapiens, UniProt O60888); experiment: as above; format: binding; details: HEK 293 lysate
# T7 construct: endogenous in cells; host or cells: HEK 293
# T7 sequence (O60888 33-179): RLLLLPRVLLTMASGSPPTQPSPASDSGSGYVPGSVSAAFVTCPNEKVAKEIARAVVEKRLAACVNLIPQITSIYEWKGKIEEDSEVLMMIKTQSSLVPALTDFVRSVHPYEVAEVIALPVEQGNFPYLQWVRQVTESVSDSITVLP
# Method: as §1, §2, §3
# Deoxyguanosine kinase = target: T8, Deoxyguanosine kinase (Homo sapiens, UniProt Q16854); experiment: as above; format: binding; details: HEK 293 lysate
# T8 construct: endogenous in cells; host or cells: HEK 293
# T8 sequence (Q16854 40-277): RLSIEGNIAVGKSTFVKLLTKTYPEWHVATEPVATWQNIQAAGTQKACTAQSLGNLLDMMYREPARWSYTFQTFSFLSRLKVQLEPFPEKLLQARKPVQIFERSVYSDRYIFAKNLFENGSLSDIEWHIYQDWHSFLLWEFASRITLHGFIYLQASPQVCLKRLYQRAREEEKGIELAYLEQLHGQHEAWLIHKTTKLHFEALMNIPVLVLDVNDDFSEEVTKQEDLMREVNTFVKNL
# Method: as §1, §2, §3
# Nudix 1 = target: T9, Nudix 1 (Homo sapiens, UniProt P36639); experiment: as above; format: binding; details: HEK 293 lysate
# T9 construct: endogenous in cells; host or cells: HEK 293
# Method: as §1, §2, §3
compound,measurement,setting,value
CN(Cc1cnc2nc(N)nc(N)c2n1)c1ccc(C(=O)N[C@@H](CCC(=O)O)C(=O)O)cc1 [Methotrexate],Protein identified by Mass Spec.; New MTX interactor,[1],binds directly to Methotrexate
same,Protein identified by Mass Spec.; New MTX interactor,[1]; listed as MTX,✓
same,Protein identified by Mass Spec.; New MTX interactor,Pyridoxal Kinase,direct binder of Methotrexate
same,Protein identified by Mass Spec.; New MTX interactor,Pyridoxal Kinase; listed as MTX,✓
same,inhibition of muscle glycogen phosphorylase b,[2],reversible inhibitors
same,Association with the Methotrexate matrix,AIR carboxylase,associated indirectly with Methotrexate
same,Association with the Methotrexate matrix,SAICAR synthetase,a single band contained peptides from both domains
same,Protein identified by Mass Spec.; New MTX interactor,[3],binds this enzyme directly
same,Protein identified by Mass Spec.; New MTX interactor,[3]; listed as MTX,✓
same,effect on activity of HPRT,HPRT,can reduce the activity of HPRT
same,Protein identified by Mass Spec.; New MTX interactor,Glycogen Phosphorylase,direct binder of Methotrexate
same,Protein identified by Mass Spec.; New MTX interactor,Glycogen Phosphorylase; listed as MTX,✓
same,Association with the Methotrexate matrix,[4],consistently found; also recorded: pulled down consistently
same,Protein identified by Mass Spec.; New MTX interactor,Deoxyguanosine kinase,binds to Methotrexate through a direct interaction
same,Protein identified by Mass Spec.; New MTX interactor,Deoxyguanosine kinase; listed as MTX,✓
same,Association with the Methotrexate matrix,Nudix 1,consistently found
